Assay results from publication PMC9693971, “Fast Screening of Protein Tyrosine Phosphatase 1B Inhibitor from Salvia miltiorrhiza Bge by Cell Display-Based Ligand Fishing” (Molecules, 2022).

What was measured:
[1] = target: T1, Protein tyrosine phosphatase 1B (PTP1B) (Homo sapiens, UniProt P18031); experiment: ligand fishing with E. coli surface-displayed PTP1B, HPLC readout, with control cells; not fished by MNPs-PTP1B; type: cell-based
T1 construct: gene PTPN1
T1 sequence (P18031 1-435): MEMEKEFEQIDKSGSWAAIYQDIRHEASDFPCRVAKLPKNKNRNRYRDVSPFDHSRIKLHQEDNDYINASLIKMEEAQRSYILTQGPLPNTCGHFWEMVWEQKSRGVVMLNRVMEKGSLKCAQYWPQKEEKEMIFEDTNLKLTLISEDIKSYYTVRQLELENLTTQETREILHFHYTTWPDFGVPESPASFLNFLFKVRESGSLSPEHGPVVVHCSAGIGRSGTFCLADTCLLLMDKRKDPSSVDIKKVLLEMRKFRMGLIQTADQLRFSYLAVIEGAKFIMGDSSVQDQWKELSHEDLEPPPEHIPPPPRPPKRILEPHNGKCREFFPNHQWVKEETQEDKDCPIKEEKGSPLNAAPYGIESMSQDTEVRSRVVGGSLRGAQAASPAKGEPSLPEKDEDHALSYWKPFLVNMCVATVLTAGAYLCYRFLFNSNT

[2] = target: T1, Protein tyrosine phosphatase 1B (PTP1B); experiment: pNPP phosphatase inhibition assay with Lineweaver-Burk kinetics (Ki […], Kis […]); also fished out by PTP1B displayed on E. coli; type: biochemical

Row | Compound | ligand fishing with E. coli surface-displayed PTP1B, HPLC readout, with control [1] | IC50 [2]
1 | C[C@@H]1O[C@@H](OC[C@H]2O[C@@H](Oc3c(-c4ccc(O)c(O)c4)oc4cc(O)cc(O)c4c3=O)[C@H](O)[C@@H](O)[C@@H]2O)[C@H](O)[C@H](O)[C@H]1O [II, rutin] | only EC-PTP1B extracted the positive compound rutin, indicating that EC-PTP1B was efficient for fishing the enzyme ligand | 
2 | O=C(/C=C/c1ccc(O)c2c1[C@H](C(=O)O[C@H](Cc1ccc(O)c(O)c1)C(=O)O)[C@@H](c1ccc(O)c(O)c1)O2)O[C@H](Cc1ccc(O)c(O)c1)C(=O)O [salvianolic acid B] |  | 23.3 µM
